Read-outs that look alike come from different tables or passages of the source.
Columns and labels:
[1] = tested on: arginase; test: Pharmacodynamics: plasma arginine levels; type: in vivo, Japanese patients; details: change from baseline
Protocol: Pharmacodynamics of INCB001158 alone or in combination were assessed as an exploratory objective. Urine was collected at regular intervals from patients in the INCB001158 monotherapy and combination groups to assess urinary orotic acid levels and evaluate whether INCB001158 inhibits the urea cycle. Plasma samples from patients in these groups were also assessed for ammonia, arginine, and ornithine levels.

[2] = INCB001158 plasma pharmacokinetics (LC-MS/MS, noncompartmental analysis); type: in vivo, Japanese patients; details: for Cmax: read-out: INCB001158 geometric mean Cmax
Protocol: Pharmacokinetics of single‐agent retifanlimab and INCB001158, and the combination, were secondary endpoints of the study. The detection of anti‐drug antibodies (ADAs) was an exploratory endpoint. Blood samples for retifanlimab PK assessments were taken on days 1 (−2 h pre‐dose, end of infusion, and 6 h post‐dose), 2, 8, and 15 (no specified time) of cycle 1, day 1 of cycles 2–8 (−2 h pre‐dose, and end of infusion on cycles 2 and 6 only), and day 1 of every 4 cycles after cycle 8 (−2 h pre‐dose). Samples for ADA assessment were collected at the same time as for PK analysis, and an additional sample was collected at safety follow‐up on day 15 (no specified time). Blood samples for INCB001158 were collected pre‐dose, 0.5, 1, 2, 4, 6, and 8 h post‐dose on days 1 and 15 of cycle 1, 12 h post‐dose on day 1 of cycle 1, and pre‐dose on days 2 and 8 for cycle 1, and day 1 of cycle 2. Serum concentrations of retifanlimab were determined using an electrochemiluminescence immunoassay method, and plasma concentrations of INCB001158 were measured using a validated liquid chromatography with tandem mass spectrometry assay (Incyte Corporation, Wilmington, DE, USA). ADAs against retifanlimab were monitored using a bridging immunoassay (Incyte Corporation).
Pharmacokinetics parameters were derived from concentrations versus time data using model‐independent noncompartmental analysis methods (WinNonlin v8.2, Certara USA Inc., Princeton, NJ, USA), and included maximum observed serum or plasma concentration (C max), serum or plasma concentration observed at the end of the dosing interval (C tau), time to maximum observed serum or plasma concentration (t max), area under the serum or plasma concentration–time curve (AUC) from time 0 to the end of the dosing interval (AUCtau), AUC from time 0 to infinity (AUC0‐∞), apparent terminal‐phase disposition half‐life, clearance, and volume of distribution. […]

[3] = steady-state, 100 mg BID oral, monotherapy: two individual values (n = 2), combination n = 5 mean ± SD (geometric mean)

## C[C@H](N)C(=O)N1C[C@H](CCCB(O)O)[C@](N)(C(=O)O)C1 [INCB001158]
[1]
  Plasma arginine levels: Immediate and consistent increases
[2]; Japanese patients
  PK of INCB001158 in combination with retifanlimab versus INCB001158 monotherapy: comparable
[2]; combination cohort
  Drug–drug interaction (INCB001158 PK, combination vs monotherapy cohorts): no drug–drug interaction
[2]; human, plasma, oral, 100 mg, first dose, 100 mg BID monotherapy, read-out: INCB001158 geometric mean AUC0‐∞
  AUC: 17900 ng·h/mL
[2]; human, plasma, oral, 100 mg, first dose, 100 mg BID monotherapy, read-out: INCB001158 geometric mean AUCtau
  AUC: 13700 ng·h/mL
[2]; human, plasma, oral, 100 mg, first dose, 100 mg BID monotherapy
  Cmax: 1740 ng/mL
[2]; human, plasma, oral, 100 mg, first dose, 100 mg BID monotherapy, read-out: INCB001158 median tmax
  Tmax: 3.9 h
[2]; human, plasma, oral, 100 mg, steady‐state, 100‐mg BID monotherapy, read-out: INCB001158 geometric mean AUCtau
  AUC: 23200 ng·h/mL
[2]; human, plasma, oral, 100 mg, steady‐state, 100‐mg BID monotherapy
  Cmax: 2690 ng/mL
[2]; human, plasma, oral, 100 mg, steady‐state, 100‐mg BID monotherapy, read-out: INCB001158 median tmax
  Tmax: 3.8 h
[2]; human, plasma, po, 75 mg, first dose, 75 mg BID oral, n = 3, median (min, max), read-out: INCB001158 tmax
  Tmax: 3.9 h
[2]; human, plasma, po, 75 mg, steady-state, 75 mg BID oral, n = 3, median (min, max), read-out: INCB001158 tmax
  Tmax: 3.9 h
[2]; human, plasma, po, 100 mg, first dose, 100 mg BID oral, monotherapy n = 3, combination n = 6, median (min, max), read-out: INCB001158 tmax
  Tmax: 3.9 h
[2]; human, plasma, po, 100 mg, steady-state, 100 mg BID oral, monotherapy n = 3, combination n = 5, median (min, max), read-out: INCB001158 tmax
  Tmax: 3.8 h
[2]; human, plasma, po, 100 mg, steady-state, 100 mg BID oral, monotherapy: two individual values (n = 2), combination n = 5 mean ± SD (geometric mean), read-out: INCB001158 Vz/F
  Vd/F: 44.9 L
[2]; human, plasma, po, 100 mg, steady-state, 100 mg BID oral, monotherapy: two individual values (n = 2), combination n = 5 mean ± SD (geometric mean), read-out: INCB001158 t½ (converted)
  half-life: 6.25 h
[2]; [3]
  INCB001158 Vz/F: 39.3 L
  INCB001158 t½: 5.50 h
[2]; steady‐state, 100‐mg BID monotherapy
  INCB001158 geometric mean Ctau: 1130 ng/mL
